# In PubChem BioAssay (NCI):
#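 Where inhibition never reached the appropriate level, the endpoint shown equals the highest concentration tested. Otherwise, values were interpolated linearly from a five-concentration, 48-hour dose response in 96-well plates. GI50: concentration for 50% inhibition of growth. TGI: concentration producing complete growth inhibition.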
# Key:
# Assay in all cases: NCI-60 cell line screen, 48 h
# OVCAR-8 ovarian = tested on: OVCAR-8 ovarian
# SF-268 CNS = tested on: SF-268 CNS
# UACC-257 melanoma = tested on: UACC-257 melanoma
# A498 renal = tested on: A498 renal
# HOP-92 NSCLC = tested on: HOP-92 NSCLC
# DU-145 prostate = tested on: DU-145 prostate
# EKVX NSCLC = tested on: EKVX NSCLC
# COLO 205 colon = tested on: COLO 205 colon
# RPMI-8226 leukemia = tested on: RPMI-8226 leukemia
# HCC-2998 colon = tested on: HCC-2998 colon
SMILES,TGI (OVCAR-8 ovarian) [µM],TGI (SF-268 CNS) [µM],TGI (UACC-257 melanoma) [µM],TGI (A498 renal) [µM],TGI (HOP-92 NSCLC) [µM],TGI (DU-145 prostate) [µM],TGI (EKVX NSCLC) [µM],TGI (COLO 205 colon) [µM],TGI (RPMI-8226 leukemia) [µM],TGI (HCC-2998 colon) [µM],GI50 (OVCAR-8 ovarian) [µM],GI50 (SF-268 CNS) [µM],GI50 (UACC-257 melanoma) [µM],GI50 (HCC-2998 colon) [µM],GI50 (A498 renal) [µM],GI50 (DU-145 prostate) [µM],GI50 (EKVX NSCLC) [µM],GI50 (COLO 205 colon) [µM],GI50 (RPMI-8226 leukemia) [µM],GI50 (HOP-92 NSCLC) [µM]
O=C(O)c1ccc2c(c1C(=O)O)C(=O)OC2(c1ccc(O)cc1)c1ccc(O)cc1,> 100,> 100,> 100,> 100,> 100,> 100,> 100,> 100,> 100,,,,,,,,,,,
CCCCCC[C@@H]1CCC2C(CO)[C@@H](O)CC[C@@H]2C1 (stereo not given in full),33.4,32.6,31,,,,32.7,35.1,63.2,37,,,,,,,,,,
C=CC[C@H](C[C@H](C[C@H](C[C@H](C[C@H](C[C@H](C[C@H](C[C@H](C[C@H](C[C@H](CCCCC)OC)OC)OC)OC)OC)OC)OC)OC)OC)OC,> 100,> 100,> 100,> 100,> 100,,> 100,> 100,> 100,> 100,,,,,,,,,,
Cc1ccc(-n2c3nc(=O)[nH]c(=O)c-3cc3cc([N+](=O)[O-])ccc32)cc1,> 100,54.8,70.9,45.2,,55.1,67,41.6,21.3,28.6,38.6,17.3,26.7,14.6,20.5,22.9,33.1,15.6,3.95,
C/C(=N/Nc1ccc([N+](=O)[O-])cc1[N+](=O)[O-])C(CC(C(=O)NCc1ccccc1)/C(C)=N\Nc1ccc([N+](=O)[O-])cc1[N+](=O)[O-])C(=O)NCc1ccccc1 (stereo not given),4.73,16.5,18,30.5,7.98,,32.9,27.8,44.8,33.9,,,,,,,,,,
O=C1C=CC(=O)c2nc3c(cc21)CCC3,28.8,37.3,33.9,,34.1,,,27.7,,> 100,,,,,,,,,,
Cn1ccc2c3c(Oc4ccc(NC(N)=O)cc4)ccnc3ccc21,> 100,> 100,> 100,> 100,,> 100,> 100,> 100,> 100,> 100,> 100,> 100,> 100,> 100,> 100,> 100,> 100,> 100,> 100,
COc1cc(-c2ccc3cc(OC)c(OC)c(OC)c3c2)cc(OC)c1OC,> 100,> 100,> 100,91.8,14.1,> 100,,> 100,,> 100,> 100,24,> 100,> 100,11.1,> 100,,> 100,,2.17
Nc1n[nH]c2cccc(C#Cc3cccc(C(=O)Nc4ccc(CN5CCOCC5)c(C(F)(F)F)c4)c3)c12,8.18,13.3,10.6,,4.29,13.3,19,6.99,5.62,13.9,2.54,2.72,2.41,3,,3.93,3.42,1.35,1.76,1.12
